Measurements taken from patent US5198441A, “Derivatives of 1,2-dihydro 2-oxo quinoxalines, their preparation and their use in therapy” (Pierre Fabre Medicament, priority 1989, dated 1993).
In brackets after ≈: the same amount, converted by molar mass.

What was measured:
[1] = system: trachea contractions caused by histamine; experiment: Antagonism of the effect of histamine (contraction of isolated guinea pig trachea); details: Cavia porcellus, 5 min; histamine dihydrochloride 10 μg/ml; 5 minutes contact; 37° C.
Description: (§1) The compounds of the invention were subjected to pharmacological tests which have shown their interest as broncholytics. For this purpose, the compounds were studied for their effect against contractions caused by various products in accordance with the following protocol.
(§2) A piece of the trachea of a male tri-color guinea pig of an average weight of 400 g is cut in a spiral and mounted (about 2.5 cm) in an isolated organ cell maintained thermostatically at 37° C. and filled with oxygenated tyrode. The isometric contractions caused by the different mediators are recorded by means of a Gould Statham UC2 detector (Gould Inc. Oxnard, Calif., USA) or UF1 Palmer Bioscience detector connected to a potentiometric recorder (Linseiss, Selb, Federal Republic of Germany). At the start of the experiment, the piece of trachea was placed under a tension of 1 g and set aside for one hour.
(§3) The following mediator concentrations are used (concentrations generally causing maximum contraction): histamine dihydrochloride, 10 μg/ml; acetylcholine chloride, 1 μg/ml; potassium salt of leucotrine D4, 0.05 μg/ml; potassium chloride, 1850 μg/ml. The concentrations of agents used produce contractions which become maximum within 5 to 15 minutes, depending on the mediators, and then remain at that level. One concentration of the product studied is administered for each contraction,and the product is left in contact with the trachea for 5 minutes. The inhibition, if any, obtained at the end of this time is measured (percentage variation in the amplitude of the contraction). The trachea is then washed for 15 seconds and set aside for about 10 minutes (time necessary to return to the base tone) before causing a new contraction.
(§4) The water-insoluble products are diluted in 0.178% (v/v) (final concentration in the bath) of dimethyl sulfoxide (DMSO).
(§5) The 50% inhibitory concentrations (IC 50) are calculated using an SAS program (Statistical Analysis System) based on Bliss and Cattel (Bliss C.I. and Cattel McK. Biological Assay Ann. Rev. Physiol. 5, 479, 1943).

[2] = system: trachea contractions caused by acetylcholine; experiment: Antagonism of the effect of acetylcholine (contraction of isolated guinea pig trachea); details: Cavia porcellus, 5 min; acetylcholine chloride 1 μg/ml; 5 minutes contact; 37° C.
Description: as §1, §2, §3, §4, §5

[3] = system: trachea contractions caused by leucotriene D4; experiment: Antagonism of the effect of leucotriene D4 (contraction of isolated guinea pig trachea); details: Cavia porcellus, 5 min, leucotriene D4 potassium salt 0.05 μg/ml, 5 minutes contact; for inhibition at 10 µg/mL: 10 μg/ml, percentage variation in the amplitude of the contraction
Description: as §1, §2, §3, §4, §5

[4] = system: trachea contractions caused by potassium chloride; experiment: Antagonism of the effect of potassium chloride (contraction of isolated guinea pig trachea); details: Cavia porcellus, 5 min; potassium chloride 1850 μg/ml; 5 minutes contact; 37° C.
Description: as §1, §2, §3, §4, §5

Structure (SMILES) | IC50 [1] [µg/mL] | IC50 [2] [µg/mL] | inhibition at 10 µg/mL [3] [%] | IC50 [4] [µg/mL] | IC50 ([3]; 37° C.) [µg/mL]
CC(C)=CCn1c(=O)c(CCC(C)O)nc2ccccc21 (stereo not drawn) [Compound 20] | 1.55 (≈ 5.41 µM) | 9.7 (≈ 33.9 µM) |  |  | 
O=c1c(CCCO)nc2ccccc2n1Cc1ccccc1 [Compound 17] | 0.43 (≈ 1.46 µM) |  |  |  | 
CC=CCn1c(=O)c(CCCO)nc2ccccc21 [Compound 12] | 0.54 (≈ 2.09 µM) | 15.5 (≈ 60 µM) | -71 | 6.2 (≈ 24 µM) | 
C=CCn1c(=O)c(CCCO)nc2ccc(Cl)cc21 [Compound 5] |  |  |  | 17 (≈ 61 µM) | 
CC=CCn1c(=O)c(CCC(C)O)nc2ccccc21 (stereo not drawn) [Compound 19] | 1.13 (≈ 4.15 µM) | 16.5 (≈ 60.6 µM) |  |  | 
Cn1c(=O)c2[nH]cnc2n(C)c1=O [theophylline, reference compound] | 11.5 (≈ 63.8 µM) | 65 (≈ 361 µM) |  | 21 (≈ 117 µM) | 13.5
CCCn1c(=O)c(CCCO)nc2ccccc21 [Compound 11] | 3.45 (≈ 14 µM) |  |  |  | 
CC(C)=CCn1c(=O)c(CCCO)nc2ccccc21 [Compound 1, 1-prenyl 3-(3-hydroxypropyl) 1,2-dihydro 2-oxo quinoxaline] | 0.9 (≈ 3.3 µM) | 25.5 (≈ 93.6 µM) | -71 | 5.6 (≈ 20.6 µM) | 
COc1ccc(Cn2c(=O)c(CCC(C)O)nc3ccccc32)cc1 (stereo not drawn) [Compound 24] | 1.3 (≈ 3.84 µM) |  |  |  | 
O=c1c(CCCO)nc2ccccc2n1CC1CC1 [Compound 15] |  |  | -64 |  | 
CCCn1c(=O)c(CCCOC(=O)NC)nc2ccccc21 [Compound 3, 1-propyl 3-(3-methylcarbamoyloxypropyl) 1,2-dihydro 2-oxo quinoxaline] | 3.3 (≈ 10.9 µM) | 7.1 (≈ 23.4 µM) |  |  | 
C=CCn1c(=O)c(CCCO)nc2ccccc21 [Compound 8] |  |  |  | 12.3 (≈ 50.3 µM) | 
